Legend:
MOLM-14 = experiment: Cancer cell proliferation, Cell Titer-Glo, GI50; format: cell-based; details: Homo sapiens; MOLM-14, 72 hours
Experimental: (§1) Compounds of the invention were evaluated for their inhibitory effects on proliferation of cancer cells as well as the selectivity thereof by testing their effects on growth of cancer cells (Table 2).
(§2) In this example the following cells were selected: human acute myeloid leukemia cells MV-4-11 (expressing FLT3[ITD] mutant gene), human acute myeloid leukemia cells MOLM-13 (expressing FLT3[ITD] mutant gene and wild-type FLT3 gene), human acute myeloid leukemia cells MOLM-14 (expressing FLT3[ITD] mutant gene and wild-type FLT3 gene), human acute myeloid leukemia cells OCI-AML3 (expressing FLT3[A680V] mutant gene), human acute myeloid leukemia cells U937 (expressing wild-type FLT3 gene), and mouse pro-B cells BaF3, and the above cells were purchased from ATCC.
(§3) Then the number of viable cells was determined by quantification of ATP in living cells using Cell Titer-Glo® (Promega, the USA) Luminescent Cell Viability Assay kit and thereby GI50 was calculated.

MV-4-11 = experiment: Cancer cell proliferation, Cell Titer-Glo, GI50; format: cell-based; details: Homo sapiens, MV4-11; MV-4-11, 72 hours
Experimental: as §1, §2, §3

U937 = experiment: Cancer cell proliferation, Cell Titer-Glo, GI50; format: cell-based; details: Homo sapiens, U-937; U937, 72 hours
Experimental: as §1, §2, §3

BaF3-FLT3 [ITD + D835Y] = experiment: Cell proliferation, Cell Titer-Glo, GI50; format: cell-based; details: Mus musculus, Ba/F3 FLT3-ITD, 72 hours
Experimental: as §1
(§4) Mouse BaF3-FLT3[ITD] (stably expressing FLT3[ITD] mutant activated kinase), mouse tel-BaF3-FLT3-D835Y (stably expressing FLT3[D835Y]mutant activated kinase), mouse tel-BaF3-BMX (stably expressing BMX kinase), mouse tel-FLT3-BaF3 (stably expressing FLT3 kinase), mouse BaF3-FLT3-ITD-D835Y (stably expressing FLT3[ITD+D835Y]mutant activated kinase), mouse BaF3-FLT3-ITD-F691L (stably expressing FLT3[ITD+F691L]mutant activated kinase), mouse tel-cKIT-BaF3 (stably expressing cKIT kinase), mouse BaF3-tel-cKit-N882K (stably expressing cKIT-N882K mutant activated kinase), mouse BaF3-tel-cKit-D816V (stably expressing cKIT-D816V mutant activated kinase), mouse BaF3-tel-cKit-T670I (stably expressing cKIT-T670I mutant activated kinase), mouse TPR-MET-BaF3 (stably expressing MET kinase), mouse tel-BaF3-EGFR (stably expressing EGFR kinase), mouse BaF3-FL-EGFR-L858R (stably expressing EGFR[L858R]mutant activated kinase), mouse tel-BaF3-BLK (stably expressing BLK kinase), mouse tel-JAK1-BaF3 (stably expressing JAK1 kinase) and the like were also used (see Table 2 for details). The above cell lines were all constructed by our laboratory according to the following method: the kinase region sequences of human FLT3/ITD, FLT3 D835Y, BMX, FLT3, FLT3[ITD+D835Y], FLT3[ITD+F691L], cKIT, cKIT [N882K], cKIT [D816V], cKIT [T670I], MET, EGFR, EGFR [L858R], BLK, JAK1, FLT3[K663Q], FLT3[D835V], FLT3[D835H], PDGFRa, PEGFRb, VEGFR2, JAK2, JAK3, ABL were amplified by PCR, and inserted into MSCV-Puro vectors with N-terminal TEL or TPR fragments (purchased from Clontech), respectively. The vectors were stably transfected into mouse BaF3 cells (purchased from ATCC) by means of retrovirus, and the growth factor IL-3 were removed, eventually obtaining cell lines that are transferred protein (FLT3/ITD, FLT3 D835Y, BMX, FLT3, FLT3[ITD D835Y], FLT3[ITD+F691L], cKIT, cKIT [N882K], cKIT [D816V], cKIT [T670I], MET, EGFR, EGFR [L858R], BLK, JAK1, FLT3[K663Q], FLT3[D835V], FLT3[D835H], PDGFRa, PEGFRb, VEGFR2, JAK2, JAK3, ABL)-dependent.
as §3

BaF3-FLT3 [ITD + F691L] = experiment: Cell proliferation, Cell Titer-Glo, GI50; format: cell-based; details: Mus musculus, Ba/F3 FLT3-ITD, 72 hours
Experimental: as §1, §4, §3

BaF3-FLT3 [ITD] = experiment: Cell proliferation, Cell Titer-Glo, GI50; format: cell-based; details: Mus musculus, Ba/F3 FLT3-ITD, 72 hours
Experimental: as §1, §4, §3

BaF3-TEL-BMX = experiment: Cell proliferation, Cell Titer-Glo, GI50; format: cell-based; details: Mus musculus, 72 hours
Experimental: as §1, §4, §3

BaF3-TEL-FLT3 [D835H] = experiment: Cell proliferation, Cell Titer-Glo, GI50; format: cell-based; details: Mus musculus, 72 hours
Experimental: as §1, §4, §3

BaF3-TEL-FLT3 [D835V] = experiment: Cell proliferation, Cell Titer-Glo, GI50; format: cell-based; details: Mus musculus, 72 hours
Experimental: as §1, §4, §3

BaF3-TEL-FLT3 [D835Y] = experiment: Cell proliferation, Cell Titer-Glo, GI50; format: cell-based; details: Mus musculus, 72 hours
Experimental: as §1, §4, §3

BaF3-TEL-FLT3 [K663Q] = experiment: Cell proliferation, Cell Titer-Glo, GI50; format: cell-based; details: Mus musculus, 72 hours
Experimental: as §1, §4, §3

BaF3-TEL-FLT3 = experiment: Cell proliferation, Cell Titer-Glo, GI50; format: cell-based; details: Mus musculus; BaF3-TEL-FLT3, 72 hours
Experimental: as §1, §4, §3

BaF3-TEL-PDGFRa = experiment: Cell proliferation, Cell Titer-Glo, GI50; format: cell-based; details: Mus musculus, 72 hours
Experimental: as §1, §4, §3

BaF3-TEL-PEGFRb = experiment: Cell proliferation, Cell Titer-Glo, GI50; format: cell-based; details: Mus musculus, 72 hours
Experimental: as §1, §4, §3

BaF3-TEL-cKIT = experiment: Cell proliferation, Cell Titer-Glo, GI50; format: cell-based; details: Mus musculus, 72 hours
Experimental: as §1, §4, §3

BaF3-TEL-cKit [D816V] = experiment: Cell proliferation, Cell Titer-Glo, GI50; format: cell-based; details: Mus musculus, 72 hours
Experimental: as §1, §4, §3

BaF3-TEL-cKit [N882K] = experiment: Cell proliferation, Cell Titer-Glo, GI50; format: cell-based; details: Mus musculus, 72 hours
Experimental: as §1, §4, §3

BaF3-TEL-cKit [T670I] = experiment: Cell proliferation, Cell Titer-Glo, GI50; format: cell-based; details: Mus musculus, 72 hours
Experimental: as §1, §4, §3

BaF3 = experiment: Cell proliferation, Cell Titer-Glo, GI50; format: cell-based; details: Mus musculus; BaF3, 72 hours
Experimental: as §1, §2, §3

STAT5 = experiment: Signaling pathways of FLT3 in cells: STAT5 phosphorylation; format: cell-based, human; details: MV-4-11, MOLM-13 and MOLM-14 cells, 4 hours; Compound 1 0.001-0.3 μM, AC220 0.1 μM
[1] = tested on: MOLM-13, MOLM-14 and MV-4-11 cell lines; experiment: Cell cycle distribution by flow cytometry (PI); format: cell-based, human; details: MOLM-13, MOLM-14 and MV-4-11, 12 or 24 hours; Compound 1 0.01-0.1 μM, AC220 0.1 μM
MOLM-14 cells = experiment: Nude mouse model harboring subcutaneous tumor; format: in vivo; details: 28 days
Experimental: The first day of administration was recorded as day 0, followed by continuous administration for 28 days (FIG. 4).

PARP and Caspase 3 = experiment: Cell apoptosis, Western Blot of PARP and Caspase 3 cleavage
Text: Western Blot was used to detect the effects of different concentrations of compounds on protein cleavage of the DNA repairase poly(ADP-ribose) polymerase (PARP) and Caspase (cysteinyl aspartate-specific proteinase) 3, wherein glyceraldehyde-3-phosphate dehydrogenase (GAPDH) was used as the internal standard protein.

Q: Which GI50 (MOLM-14) does the source give for CC(=O)N1CCN(Cc2ccc(-c3nn(-c4ccc(NC(=O)Nc5cc(C(C)(C)C)on5)cc4)c4ncnc(N)c34)cc2)CC1 [Compound 21, 1-(4-(3-(4-((4-acetylpiperazin-1-yl)methyl)phenyl)-4amino-1H-pyrazolo[3,4-d]pyrimidin-1-yl)phenyl)-3-(5-(tert-butyl)isoxazol-3-yl)urea] here?
A: Its GI50 is less than 0.3 nM.

Q: What about the GI50 (MV-4-11) of the same compound?
A: Its GI50 is less than 0.3 nM.

Q: And the GI50 (U937)?
A: The GI50 was 2300 nM.

Q: What about the GI50 (BaF3-FLT3 [ITD + D835Y]) of the same compound?
A: Its GI50 is 59 nM.

Q: What about the GI50 (BaF3-FLT3 [ITD + F691L]) of the same compound?
A: The GI50 was 120 nM.

Q: And the GI50 (BaF3-FLT3 [ITD])?
A: The GI50 was less than 0.3 nM.

Q: What about the GI50 (BaF3-TEL-BMX) of the same compound?
A: The GI50 was 5300 nM.

Q: What about the GI50 (BaF3-TEL-FLT3 [D835H]) of the same compound?
A: Its GI50 is less than 0.3 nM.

Q: What about the GI50 (BaF3-TEL-FLT3 [D835V]) of the same compound?
A: Its GI50 is 4 nM.

Q: And the GI50 (BaF3-TEL-FLT3 [D835Y])?
A: Its GI50 is 9 nM.

Q: What about the GI50 (BaF3-TEL-FLT3 [K663Q]) of the same compound?
A: The GI50 was 3600 nM.

Q: And the GI50 (BaF3-TEL-FLT3)?
A: Its GI50 is 1 nM.

Q: And the GI50 (BaF3-TEL-PDGFRa)?
A: The GI50 was 2 nM.

Q: What about the GI50 (BaF3-TEL-PEGFRb) of the same compound?
A: The GI50 was 10 nM.

Q: What about the GI50 (BaF3-TEL-cKIT) of the same compound?
A: Its GI50 is 31 nM.

Q: And the GI50 (BaF3-TEL-cKit [D816V])?
A: Its GI50 is 1800 nM.

Q: And the GI50 (BaF3-TEL-cKit [N882K])?
A: Its GI50 is 10 nM.

Q: And the GI50 (BaF3-TEL-cKit [T670I])?
A: The GI50 was 4 nM.

Q: What about the GI50 (BaF3) of the same compound?
A: The GI50 was roughly 10000 nM.

Q: What does the source list for CC(C)(C)c1cc(NC(=O)Nc2ccc(-n3nc(-c4ccc(OCCN5CCN(S(C)(=O)=O)CC5)cc4)c4c(N)ncnc43)cc2)no1 [Compound 22, 1-(4-(4-amino-3-(4-(2-(4-(methanesulfonyl)piperazin-1-yl)ethoxy)phenyl)-1H-pyrazolo[3,4-d]pyrimidin-1-yl)phenyl)-3-(5-(tert-butyl)isoxazol-3-yl)urea]?
A: GI50 (MOLM-14): < 0.3 nM; GI50 (MV-4-11): < 0.3 nM; GI50 (U937): 8500 nM; GI50 (BaF3-FLT3 [ITD + D835Y]): 100 nM; GI50 (BaF3-FLT3 [ITD + F691L]): 39 nM; GI50 (BaF3-FLT3 [ITD]): < 0.3 nM; GI50 (BaF3-TEL-BMX): 2000 nM; GI50 (BaF3-TEL-FLT3 [D835H]): 4 nM; GI50 (BaF3-TEL-FLT3 [D835V]): 17 nM; GI50 (BaF3-TEL-FLT3 [D835Y]): 20 nM; GI50 (BaF3-TEL-FLT3 [K663Q]): 3800 nM; GI50 (BaF3-TEL-FLT3): 1 nM; GI50 (BaF3-TEL-PDGFRa): 2 nM; GI50 (BaF3-TEL-PEGFRb): 12 nM; GI50 (BaF3-TEL-cKIT): 40 nM; GI50 (BaF3-TEL-cKit [D816V]): 2200 nM; GI50 (BaF3-TEL-cKit [N882K]): 15 nM; GI50 (BaF3-TEL-cKit [T670I]): 13 nM; GI50 (BaF3): 6500 nM

Q: What does the source list for CC(C)(C)c1cc(NC(=O)Nc2ccc(-n3nc(-c4ccc(OCCN5CCOCC5)cc4)c4c(N)ncnc43)cc2)no1 [Compound 1, 1-(4-(4-amino-3-(4-(2-morpholinoethoxy)phenyl)-1H-pyrazolo[3,4-d]pyrimidin-1-yl)phenyl)-3-(5-(tert-butyl)isoxazol-3-yl)urea]?
A: phosphorylation of STAT5 (STAT5): significant inhibition; cell cycle distribution [1]: arrested the cell cycle at phase G0-G1; mice body weight (MOLM-14 cells; 3.75 mg/kg daily oral gavage): no significant decrease; mice body weight (MOLM-14 cells; 15 mg/kg daily oral gavage): did not decrease; mice body weight (MOLM-14 cells; […] daily oral gavage): did not decrease; cleavage of Caspase 3 (PARP and Caspase 3; MOLM-13, 0.003 μM, 12 hours): significant cleavage; cleavage of the DNA repairase poly(ADP-ribose) polymerase (PARP) (PARP and Caspase 3; MOLM-13, 0.003 μM, 12 hours): significant cleavage; cleavage of the DNA repairase poly(ADP-ribose) polymerase (PARP) (PARP and Caspase 3; MV-4-11, 24 hours): even more significant

— patent publication US10975082B2, “Inhibitor of FLT3 kinase and use thereof” (PRECEDO PHARMACEUTICALS CO., LTD, priority 2016, dated 2021)
